Read-outs that look alike come from different tables or passages of the source.
Tests used:
[1] = molecular target: T1, methionine gamma-lyase from Pseudomonas putida ICR 3460 (Pseudomonas putida, UniProt P13254); set-up: methionine gamma-lyase purified from Pseudomonas putida ICR 3460; host or cells: Pseudomonas putida ICR 3460 (enzyme purified from the organism itself); conditions: cited from earlier work; for Vmax as a substrate for methionine gamma-lyase: maximum velocity at saturating substrate concentrations; for Km / Vmax: purified enzyme from Pseudomonas putida ICR 3460
T1 sequence (P13254 1-398): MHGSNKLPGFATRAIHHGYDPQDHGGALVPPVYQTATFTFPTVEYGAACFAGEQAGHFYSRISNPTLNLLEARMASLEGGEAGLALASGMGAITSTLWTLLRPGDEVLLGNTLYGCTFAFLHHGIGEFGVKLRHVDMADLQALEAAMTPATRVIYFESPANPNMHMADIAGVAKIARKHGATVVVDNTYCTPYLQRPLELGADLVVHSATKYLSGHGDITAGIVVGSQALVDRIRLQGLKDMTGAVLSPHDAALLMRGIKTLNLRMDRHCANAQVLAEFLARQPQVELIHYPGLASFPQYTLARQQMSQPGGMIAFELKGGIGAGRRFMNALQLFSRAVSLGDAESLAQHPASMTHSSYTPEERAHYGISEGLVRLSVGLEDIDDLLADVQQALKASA

[2] = molecular target: T1, methionine gamma-lyase from Pseudomonas putida ICR 3460
Protocol: The 2-ketobutyrate produced in the reaction is quantitated by reaction with lactic dehydrogenase and NADH, and the rate of decrease in the absorbance at 340 nm is monitored.
Stock solutions for the coupled spectrophotometric assay are prepared as follows:
Potassiumphosphate buffer, 100 mM, pH 8.0 containing 0.01 mM pyridoxal 5'-phosphate
NADH in deionized water, 5 mg/ml
Lactate dehydrogenase, crystalline suspension from rabbit muscle in 3.2M ammonium sulfate containing 9.6 mg protein/ml, with a specific activity of 800-1200 units per milligram (Sigma)
The assay mixture is prepared as follows:
A background reading of the absorbance at 340 nm was made. Enzyme solution (10 microliters, appropriately diluted to produce a change of absorbance at 340 nm between 0.1 and 1 absorbance unit per minute) is then added, and the rate of decrease in the absorbance at 340 nm is measured using a spectrophotometer.
One unit of methionine gamma-lyase activity is that amount of enzyme that causes the oxidation of 1 micromole of NADH per minute at room temperature under the assay conditions described above.

methionine gamma-lyase = molecular target: T2, methionine gamma-lyase (Pseudomonas putida, UniProt P13254); conditions: cited from earlier work; for inhibition of methionine gamma-lyase (in words): at concentrations between 0.1 mM and 10 mM
T2 sequence (P13254 1-398): T1 sequence (P13254 1-398)

CSCC[C@H](N)C(=O)O [L-methionine]
activity as a substrate of methionine gamma-lyase (in words) [1]: excellent substrates
Vmax as a substrate for methionine gamma-lyase [1]: about 20 micromoles per minute per milligram of pure protein
Km [1]: ≤ 1000 µM
Vmax [1]: 20.4 µmol/min/mg
Km ([1]; listed as L-Methionine): 1000 µM
specific activity of purified methionine gamma-lyase ([2]; L-methionine as substrate, room temperature, pH 8.0, 1 unit = 1 micromole NADH oxidized per minute): approximately 20 units per milligram

N[C@@H](CS)C(=O)O [L-cysteine]
activity as a substrate of methionine gamma-lyase (in words) [1]: low activity

N[C@@H](CCO)C(=O)O [L-homoserine]
activity as a substrate of methionine gamma-lyase (in words) [1]: either very poor substrates or do not react at all
inhibition of methionine gamma-lyase (in words) (methionine gamma-lyase): Nor do these amino acids inhibit methionine gamma-lyase appreciably

OCCS [β-mercaptoethanol]
activity as a substrate of methionine gamma-lyase (in words) [1]: not acted on by the enzyme
inhibition of methionine gamma-lyase by thiol compounds (in words) (methionine gamma-lyase): nor do they inhibit the enzyme

N[C@@H](Cc1ccc(O)cc1)C(=O)O [L-tyrosine]
activity as a substrate of methionine gamma-lyase (in words) [1]: either very poor substrates or do not react at all
inhibition of methionine gamma-lyase (in words) (methionine gamma-lyase): Nor do these amino acids inhibit methionine gamma-lyase appreciably

C[C@@H](O)[C@H](N)C(=O)O [L-Threonine]
activity as a substrate of methionine gamma-lyase (in words) [1]: either very poor substrates or do not react at all
inhibition of methionine gamma-lyase (in words) (methionine gamma-lyase): Nor do these amino acids inhibit methionine gamma-lyase appreciably

O[C@H](CS)[C@H](O)CS [dithiothreitol]
activity as a substrate of methionine gamma-lyase (in words) [1]: not acted on by the enzyme
inhibition of methionine gamma-lyase by thiol compounds (in words) (methionine gamma-lyase): nor do they inhibit the enzyme

N[C@@H](CO)C(=O)O [L-serine]
activity as a substrate of methionine gamma-lyase (in words) [1]: either very poor substrates or do not react at all
inhibition of methionine gamma-lyase (in words) (methionine gamma-lyase): Nor do these amino acids inhibit methionine gamma-lyase appreciably

N[C@@H](CCS)C(=O)O [L-homocysteine]
activity as a substrate of methionine gamma-lyase (in words) [1]: excellent substrates
Vmax as a substrate for methionine gamma-lyase [1]: 36 micromoles per minute per milligram of pure protein
Km [1]: ≤ 1000 µM
Vmax [1]: 36 µmol/min/mg
Km ([1]; listed as L-Homocysteine): 430 µM
activity of the purified methionine gamma-lyase ([2]; L-homocysteine as substrate at a concentration of 2.5 mM): approximately 36 units per milligram

N[C@@H](Cc1c[nH]c2ccccc12)C(=O)O [L-tryptophan]
activity as a substrate of methionine gamma-lyase (in words) [1]: either very poor substrates or do not react at all
inhibition of methionine gamma-lyase (in words) (methionine gamma-lyase): Nor do these amino acids inhibit methionine gamma-lyase appreciably

O[C@H](CS)[C@@H](O)CS [dithioerythritol]
activity as a substrate of methionine gamma-lyase (in words) [1]: not acted on by the enzyme
inhibition of methionine gamma-lyase by thiol compounds (in words) (methionine gamma-lyase): nor do they inhibit the enzyme

CC(=O)S [thioacetic acid]
activity as a substrate of methionine gamma-lyase (in words) [1]: not acted on by the enzyme
inhibition of methionine gamma-lyase by thiol compounds (in words) (methionine gamma-lyase): nor do they inhibit the enzyme

Source: US5885767A (BioCatalytics, Inc., priority 1998, dated 1999)
